Results on 89 compounds are retold here after a melting point compilation (Tetko et al.; mined from patent text by program, amines drawn as free bases though some values may be those of a salt).

A value given as a limit tells only on which side of the number the result lay.

Consider `CC(=O)Nc1ccc(C(=O)NC(C)(C)C)cc1`, for which the melting point was 119 to 121 °C.

`CCOC(=O)C(=CNc1nncs1)C(=O)c1cc(F)c(Cl)nc1Cl` returned a melting point of 137 to 140 °C.

Turning to `c1cc(-c2noc(C3CC3)n2)ncn1`, the melting point lay in the range of 89 to 94 °C.

`CC(C)NC1=NS(=O)(=O)c2cc(F)c(NC(C)C)cc2N1` showed a melting point of 234 to 237 °C.

Take `CCCOc1cc(C=CC(=O)N2CCN(c3ccc(NC(=N)c4cccs4)cc3)CC2)cc(OCCC)c1O`: the melting point was in the range of 72 to 73 °C.

With `COc1cc([C@H]2C(C#N)=C(N)Oc3c2ccc(NC(=O)CN(C)C(=O)OC2c4ccccc4-c4ccccc42)c3N)cc(Br)c1OC`, the melting point was 128 to 130 °C.

In turn, `CCn1ncc2c(NCc3ccc(OC)cc3)c3cc(OC)ccc3nc21` yielded a melting point of 263 to 265 °C.

`O=C(O)C1=Cc2c(F)ccc(Br)c2OC1C(F)(F)F` (centres undefined): the melting point was 222 to 223 °C.

`CC1SCN(CCCCN2CCN(c3nsc4ccccc34)CC2)C1=O` (centres undefined): the melting point lay in the range of 113 to 115 °C.

With `COC(=O)CCc1cc2cc(C(F)(F)F)ccc2n1S(=O)(=O)c1cccc2nc(C)sc12`, the melting point was in the range of 106 to 108 °C.

`CCN(CC)c1ccc(C2(c3ccc(N(CC)CC)cc3N(CC)CC)OC(=O)c3ccccc32)c(C)c1` (centres undefined) came in with a melting point of 149 to 151 °C.

On to `CCC(C(=O)C(=O)O)c1ccccc1` (centres undefined), for which the melting point fell in the range of 62 to 68 °C.

Regarding `Cc1ccc(S(=O)(=O)NCC(Cc2ccccc2)NS(=O)(=O)c2ccc(C)cc2)cc1` (centres undefined), the melting point was 128 to 131 °C.

The compound `CNCc1ccc(C2=NCCN2C(=O)OC(C)(C)C)cc1` yielded a melting point of 65 °C.

Turning to `CC1=NC(C)(COc2ccc(NC(=O)c3cc(F)cc(N4CCOCC4)c3)c3ccccc23)CO1` (centres undefined), the melting point was in the range of 203 to 206 °C.

As to `N#CCc1ccc(OC(F)F)c(OC2CCCC2)c1`, the melting point was 39 to 41 °C.

As for `NC(=O)[C@@H]1[C@H](Nc2nc(Nc3ccc4c(c3)CCC(NCC(F)F)CC4)ncc2Cl)[C@H]2C=C[C@@H]1C2` (some centres undefined), the melting point worked out at 128 °C.

On to `O=C(Cc1ccc2[nH]cc(CCN3C(=O)c4ccccc4C3=O)c2c1)N1CCOCC1`, for which the melting point lay in the range of 140 to 141 °C.

The compound `Cc1cccc(C(=O)Nc2c[nH]nc2C(=O)NCCF)n1` gave a melting point of 220 to 221 °C.

`CC1(C)CCC(C)(C)c2cc(C#Cc3ccc(C#N)cc3)ccc21` displayed a melting point of 157 °C.

Take `Cc1ccc2c3c(ccc2n1)OCC(CN1CCC(C#N)(c2ccccc2)CC1)O3` (centres undefined): the melting point lay in the range of 185 to 187 °C.

In the case of `O=C(N1c2ccccc2C(Br)C(Br)c2ccccc21)C(F)(F)F` (centres undefined), the melting point was 186 to 189 °C.

The compound `COc1ccc(Br)cc1OCCCCCc1ccc(F)cc1` showed a melting point of 46 to 47 °C.

In turn, `O=Cc1c2n(c3ccccc13)CCNCC2` gave a melting point of 167 to 168 °C.

In the case of `O=C(Nc1ccccc1)N1Cc2cccn2-c2ccsc2C1=O`, the melting point stood at 176 °C.

Regarding `CCn1c(=O)oc2cc([N+](=O)[O-])cc(F)c21`, the melting point lay within 121 to 122 °C.

In turn, `O=C(CCCC1CCN(Cc2ccccc2)CC1)c1ccc(N2CCCC2)cc1` showed a melting point of 115 to 116 °C.

In the case of `COc1ccc([C@H]2CCCN2[S@@](=O)C(C)(C)C)cc1`, the melting point was 61 to 63 °C.

`C=Cc1cc(C(C)NC(=O)Nc2ccc(C(C)(C)C)cc2)ccc1NS(=O)(=O)C=C` (centres undefined) had a melting point of 60 to 62 °C.

As for `COc1cccc(N(C)c2nc(N)nc3[nH]c4ccccc4c23)c1`, the melting point was 245 to 246 °C.

Turning to `CC1(C)CC1C(=O)Nc1ccc(C2=NNC(=O)CC2)cc1` (centres undefined), the melting point was in the range of 213 to 214 °C.

`CCCN1CC(C)C=C2c3cccc4c3C(CN4)CC21` (centres undefined) registered a melting point of 135 to 137 °C.

Take `COC(=O)NC1CCCCC1`: the melting point is 73 to 74 °C.

In the case of `CCOC(=O)OCC(F)(F)Cn1nc(C)c(-c2ccc3c(c2)NC(=O)CO3)c1-c1ccc(F)cc1`, the melting point is 142 °C.

Regarding `COc1nc2c(s1)C(=O)N(C(C)(C)C)C2=O`, the melting point fell in the range of 63 to 66 °C.

For `O=C1NC(=O)C2(N1)C(=O)N(Cc1cc(Cl)c(Br)c(Cl)c1)c1ccccc12` (centres undefined), the melting point lay in the range of 290 to 292 °C.

`O=C(CCc1ccccc1)NCCCn1ccnc1` yielded a melting point of 90 to 92 °C.

`CCN(CC)C(=O)c1ccc(-c2cc3c(Nc4cccc(Cl)c4)ncnc3[nH]2)cc1` yielded a melting point above 250 °C.

As for `O=P(O)(O)c1cccc(Br)c1`, the melting point lay within 144 to 149 °C.

On to `Clc1cc(N2CCOCC2)ccc1Nc1ncc2c(Cl)cc(-c3ccccc3)n2n1`, for which the melting point lay within 242 to 244 °C.

`C=Cc1cc(C(C)NC(=O)OC(C)(C)C)cc(F)c1N` (centres undefined) gave a melting point of 59 to 61 °C.

On to `COC(=O)c1ncc(C(=O)NS(=O)(=O)c2ccccc2)cc1OC`, for which the melting point was in the range of 160 to 163 °C.

The compound `N#Cc1cnn(-c2c(Cl)cc(SC(F)(F)F)cc2Cl)c1N` gave a melting point of 185 to 187 °C.

In turn, `O=P(c1ccccc1)(c1ccccc1)c1cc(P(=O)(c2ccccc2)c2ccccc2)nc(P(=O)(c2ccccc2)c2ccccc2)n1` yielded a melting point of 235 to 236 °C.

`O=C(O)COCc1ccccc1` showed a melting point of 81 to 83 °C.

With `Cc1ccc(S(=O)(=O)N2CCC[C@H]2C(=O)N[C@@H](Cc2ccc(NC(=S)NCCN3CCCCC3)cc2)C(=O)O)cc1`, the melting point fell in the range of 148 to 158 °C.

Regarding `O=C(c1ccc(Cl)cc1)N1CCc2cc(S(=O)(=O)N3CC(c4ccccc4)NC3=O)ccc21` (centres undefined), the melting point was 235 °C.

Take `Cc1ccc(Cn2c(NC3CCN(CC#N)CC3)nc3ccccc32)o1`: the melting point was determined as 177 °C.

In turn, `Cn1c(C(=O)NN)nc2ccccc21` showed a melting point of 156 to 159 °C.

Compound `Cc1nc(C)c(-c2ccc(OC3SCC(O)C(O)C3O)cn2)s1` (centres undefined) displayed a melting point of 175 °C.

Turning to `O/N=C(\Cl)c1cccc(Cl)c1`, the melting point fell in the range of 58 to 60 °C.

`Cn1nnc(N(Cc2ccccc2)C(=O)C2CCCC2)n1` registered a melting point of 54 °C.

Compound `CCCNc1onc2c1c(=O)n(C)c(=O)n2C` came in with a melting point of 164 to 166 °C.

`CN(C)S(=O)(=O)n1ccc2cnccc21` displayed a melting point of 87 °C.

For `NC(=O)Nc1ccc2c(c1)C(=O)C1(CC1)O2`, the melting point lay within 250 to 252 °C.

Compound `CCCSN(C)C(=O)Nc1ccc(Cl)c(Cl)c1` yielded a melting point of 40 °C.

With `CCCCCCOc1ccc(C(=O)NC2CCC(C)(C)C2)cc1` (centres undefined), the melting point was 82 to 83 °C.

Compound `N#Cc1c(N2CCCCC2)cc(-c2ccc3ccc4cccc5ccc2c3c45)c2c1-c1ccccc1C2` came in with a melting point of 114 to 116 °C.

Take `OC1CSC(Oc2ccc(-c3ccc(N4CCCCC4)cc3)nc2)C(O)C1O` (centres undefined): the melting point is 221 °C.

`CCCC(=O)c1ccc(OCCCCCC(=O)O)c(Cl)c1Cl` registered a melting point of 94 to 95 °C.

As for `COc1cccc(OC)c1-c1ccc(C[C@H](NC(=O)c2c(Cl)cc(-c3ccc[nH]3)cc2Cl)C(=O)O)cc1`, the melting point worked out at 250 °C.

Consider `O=S(=O)(Oc1ccc(OCc2ccc3ccccc3n2)cc1C1(c2ccccc2)CC2CCC1C2)C(F)(F)F` (centres undefined), for which the melting point was 131 to 132 °C.

`c1ccc(C2Nc3ccccc3N3CCc4cccc2c43)cc1` (centres undefined) returned a melting point of 161 to 164 °C.

With `CCc1nc2c(N)nc3ccccc3c2n1CC#Cc1cccc([N+](=O)[O-])c1`, the melting point fell in the range of 224 to 243 °C.

`O=C(O)C(CC(c1ccc(OCc2ccc3ccccc3n2)cc1)c1ccc(OCc2ccc3ccccc3n2)cc1)=NO` gave a melting point of 104 to 108 °C.

In the case of `Cc1ccc(N(C)S(=O)(=O)c2cccs2)c2[nH]c(C3=NCC(CC(=O)O)S3)cc12` (centres undefined), the melting point fell in the range of 269 to 270 °C.

In turn, `O=C(O)C1CCc2onc(-c3ccc(Cl)cc3)c2CC1` (centres undefined) yielded a melting point of 144 to 145 °C.

In turn, `COc1ccc(O)c2c1SC1CC3C(NC(=S)c4ccccc4)C(O)=C(C(N)=O)C(=O)C3(O)C(O)=C1C2=O` (centres undefined) came in with a melting point of 223 °C.

In the case of `CC(C)CNc1c([N+](=O)[O-])cnc2cccnc12`, the melting point is 97 to 99 °C.

`CN1CCN(c2cccc3c2C=C(C#N)CC3)CC1` returned a melting point of 104 to 105 °C.

`CCCN(C)C(C)CN1CCc2c(c(=O)oc3cc(OC)ccc23)C1` (centres undefined) displayed a melting point of 69 to 71 °C.

The compound `O=C1COc2cc(OCCCCl)ccc2N1` registered a melting point of 95 °C.

With `CCCC(C)(CCC)C(=O)O[C@H]1C[C@H](O)C=C2C=C[C@H](C)[C@H](CC[C@@H]3C[C@@H](O)CC(=O)O3)[C@H]21`, the melting point was in the range of 109 to 111 °C.

Regarding `CCc1[nH]n(C2CCCC2)c2nc(Cc3ccc(OC)c(OC)c3)nc(=O)c1-2`, the melting point was 148 to 149 °C.

As for `CC1CN(C(=O)CO)C(C)(C)O1` (centres undefined), the melting point is 50 to 53 °C.

In the case of `CN(C)c1ccc(C=CC(=O)c2ccc3c(c2)CCCC3)cc1`, the melting point fell in the range of 134 to 135 °C.

The compound `C=CCNc1ccc(N(CC=C)CC=C)cc1[N+](=O)[O-]` showed a melting point of 131 to 140 °C.

In turn, `O=C(NCCN1CCOCC1)Nc1nc2ccc(OCc3c(Cl)cccc3Cl)cc2[nH]1` registered a melting point of 256 to 259 °C.

For the compound `CC1=C(C(=O)OCCOc2ccccc2)C(c2cccc(Cl)c2C)C2=C(CNCC2=O)N1` (centres undefined), the melting point lay in the range of 233 to 235 °C.

`NS(=O)(=O)c1cc2nc(O)c(O)nc2c2scnc12` returned a melting point above 400 °C.

Take `COc1ccc(COC2C=C(C)C(=NN(C)C)CC(C)(C)C2OC)cc1` (centres undefined): the melting point lay within 71 to 72 °C.

Take `Cc1ccsc1C(=O)c1sc(Nc2ccc(N3CCN(C)CC3)cc2)nc1N`: the melting point lay within 237 to 238 °C.

`COc1cccc(-c2nc(-c3ccccc3)c3ncc(-c4cccnc4)cc3n2)c1` registered a melting point of 134 to 135 °C.

In the case of `Cc1cccc(NN)n1`, the melting point lay in the range of 54 to 56 °C.

For `Cc1ccc2c(=O)[nH]c(=O)n(C(C)C)c2c1`, the melting point is 250 to 251 °C.

In the case of `CCC1=C(C)C(=O)NC1C` (centres undefined), the melting point came out at 83 °C.

In the case of `CCOC(=O)C=Cc1cccnc1OCc1ccc(OCc2nc(-c3ccco3)oc2C)c(OC)c1`, the melting point was 85 to 87 °C.

The compound `COc1ccc(O)c(C2(NCC(C)=O)Sc3ccccc3N(C)C2=O)c1` (centres undefined) came in with a melting point of 164 to 168 °C.

On to `CN1C(=O)CC[C@]2(C)c3ccc(-c4ccc([N+](=O)[O-])cc4C(F)(F)F)cc3CC[C@@H]12`, for which the melting point lay within 128 to 130 °C.
